In patent US20060029548A1, “Methods of diagnosing, monitoring and treating pulmonary diseases” (priority 2004, published 2006):

Key:
[1] = test system: vagal action potentials elicited by ATP; settings: dog; cited from earlier work
[2] = test system: pulmonary vagal afferent C fibers (P2X3/P2X2/3-receptors); experiment: Perfused nerve-lung preparation: action potentials in C fibers; assay type: cell-based, guinea pig; settings: C fibers (n=4); 10 μM, 1 mL bolus; mean±SD
Experimental: (§1) The method for the extracellular recording of the activity of vagal sensory neurons projecting to guinea pig lungs -has been described in detail previously in Canning et al. [(2004) J. Physiol. 557:543-545], which is incorporated herein by reference in its entirety. Briefly, male Hartley guinea pigs (100-200 g) were killed with CO2 inhalation and exsanguination. The blood from the pulmonary circulation was washed out by in situ perfusion with Krebs' bicarbonate solution (KBS; comprised of 118 mM NaCl, 5.4 mM KCl, 1.0 mM NaH2PO4, 1.2 mM MgSO4, 1.9 mM CaCl2, 25.0 mM NaHCO3, 11.1 mM dextrose, and gassed with 95% O2-5% CO2 at pH7.4). The KBS contained 3 uM indomethacin to reduce the indirect influence of tissue prostanoids on sensory fiber activity. Trachea and right lungs, having intact right-side extrinsic vagal innervation by the inclusion, e.g., of right jugular and nodose ganglia, were dissected from the exsanguinated guinea pigs and placed in a two-compartment tissue bath. The right nodose and jugular ganglia, along with the rostral vagus nerve, were placed into one compartment of the tissue bath whereas the lung and trachea were placed into the second compartment of the tissue bath. The two compartments were separately superfused with KBS (6 ml min^−1, at 37° C.).
(§2) The pulmonary artery and trachea were cannulated with polyethylene (PE) tubing and continuously perfused with KBS (4 ml min^−1 and 2 ml min^−1, respectively). […]
(§3) Once a mechanosensitive receptive field was identified, a brief [<1 millisecond (ms)] electrical stimulus was delivered by a small concentric electrode that was positioned over a discrete region of the mechanosensitive receptive field to determine the conduction velocity of the fiber. […] Conduction velocity was calculated by dividing the distance along the nerve pathway by the time between the shock artifact and the action potential evoked by electrical stimulation of the mechanosensitive receptive field. […]

vagal C fiber = experiment: Vagal activation experiments in dogs: action potentials in vagal C fibers; assay type: in vivo; settings: anesthetized dog, rapid bolus; simultaneous recording with RAR-containing fiber
Experimental: (§4) The experiments described in Example 5 were performed essentially as described in Pelleg et al. [(1996) J. Physiol. 490(1):265-275] and U.S. Pat. No. 5,874,420, both of which are incorporated herein by reference in their entirety. In brief, they were performed on anesthetized (sodium pentobarbitone, 30 mg kg^−1 plus 3 mg kg^−1 h^−1, intravenous) dogs artificially ventilated with room air using a respirator. Arterial blood pH, PO2, PCO2, body temperature were maintained as described in U.S. Pat. No. 5,874,420. A peripheral vein was cannulated for the administration of physiological saline solution and maintenance doses of anesthetic. Catheters were introduced via the femoral vein and left atrial appendage and positioned in the right atrium and left atrium for the administration of test solutions. The chest was opened by a longitudinal sternotomy. The right cervical vagosympathetic trunk was exposed by a midcervical longitudinal section of the skin and careful dissection of neck muscles and connective tissues. The edges of the cut skin were elevated and secured to create a trough which was filled with warm (about 37° C.) mineral oil. A section of the vagosympathetic trunk was placed on a small plate of black Perspex™ and fine branches were separated from the main bundle by careful dissection using microsurgical tools and a dissecting microscope (Model F212, Jenopik Jena, GmbH, Germany).
Extracellular neural action potentials were recorded using a custom-made bipolar electrode that contained two platinum-iridium wires (1.25 cm×0.0125 cm) connected to a high-impedence first-stage differential amplifier (model AC8331, CW, Inc., Ardmore, Pa.) via a shielded cable. The output of the first-stage amplifier was fed into a second-stage differential amplifier (model BMA-831/C, CWE, Inc.). Isolated fibers were laid on the pair of platinum-iridium wires. Vagal C fibers with chemosensitive endings have a sparse irregular discharge which is not associated with cardiac or respiratory cycles. […]
ATP (3 umole kg^−1) and capsaicin (10 ug kg^−1) were administered as a rapid bolus into the right atrium (5 ml test solution+5 ml physiological saline flush). α,βmATP and β,γmATP were given as one low dose only (0.75 umol kg^−1) to avoid systemic side effects. […] To exclude involvement of baroreceptors in the recorded neural activity, the latter was monitored before and after a bolus of nitroglycerine (1 mg; intravenous). […]

[3] = test system: pulmonary vagal afferent A fibers (P2X3/P2X2/3-receptors); experiment: Perfused nerve-lung preparation: action potentials in A fibers; assay type: cell-based, guinea pig; settings: A fibers (n=7); 10 μM, 1 mL bolus; mean±SD
Experimental: as §1, §2, §3

[4] = test system: pulmonary RAR-containing afferent nerve fiber; experiment: Vagal activation experiments in dogs: action potentials in RAR-containing fibers; assay type: in vivo; settings: anesthetized dog
Experimental: as §4
Extracellular neural action potentials were recorded using a custom-made bipolar electrode that contained two platinum-iridium wires (1.25 cm×0.0125 cm) connected to a high-impedence first-stage differential amplifier (model AC8331, CW, Inc., Ardmore, Pa.) via a shielded cable. The output of the first-stage amplifier was fed into a second-stage differential amplifier (model BMA-831/C, CWE, Inc.). Isolated fibers were laid on the pair of platinum-iridium wires. Vagal C fibers with chemosensitive endings have a sparse irregular discharge which is not associated with cardiac or respiratory cycles. Confirmation of fiber type was obtained by: first monitoring the response to capsaicin (10 microg kg^−1, intra-right atrial bolus); second, monitoring the response to mechanical stimulation of the lungs using gentle probing with forceps as well as inflation of the lungs to 2-3 times the tidal volume; and third, determining the speed of conduction using a stimulating electrode positioned distal to the initial recording site. Nerve fibers with RAR on their pulmonary endings, spontaneously fire a brief (i.e., short lasting) volley of action potentials associated with peak tracheal pressure during each respiratory cycle.
[…] Volume controls consisted of either 5 ml+5 ml or 1 ml+3 ml physiological saline. All injections were performed in the same mode by the same person. To exclude involvement of baroreceptors in the recorded neural activity, the latter was monitored before and after a bolus of nitroglycerine (1 mg; intravenous).
The procedure described in Example 1 was used to measure action potentials in dog pulmonary fibers with RAR on their terminals following administration of various agents. RAR activation generated a brief volley of action potentials associated with each respiratory cycle that was seen before as well as after administration of ATP (FIG. 7). […] Thus ATP modified the activity of the RAR-containing fiber manifested in their transient loss of the rapid adaptability characteristic.

Cc1nc(N=Nc2ccc(S(=O)(=O)O)cc2S(=O)(=O)O)c(COP(=O)(O)O)c(C=O)c1O [PPADS, pyridoxalphosphate-6-azophenyl-2′4′-disulphonic acid]
effect on number of vagal action potentials elicited by ATP [1]: reduced the number of vagal action potentials

Nc1ncnc2c1ncn2[C@@H]1O[C@H](COP(=O)(O)CP(=O)(O)OP(=O)(O)O)[C@@H](O)[C@H]1O [α,βmATP, α,β-methylene ATP]
frequency of the generated action potentials [2]: 146±29 discharge/sec | effect on action potentials of C fibers (vagal C fiber): acted similarly to ATP | frequency of the generated action potentials [3]: 1543±285 discharge/sec | potency relative to ATP ([4]; FIG. 9): more potent than ATP | effect on action potentials of RAR-containing fibers ([4]; rapid bolus, ATP 6 μmol/kg, capsaicin 10 ug kg−1, analogs 0.75 umol kg−1): acted similarly to ATP
